{"source": "patent US5656669A", "about": "“Restorative neuropharmacological agent for motor and speech disturbance” (Sumitomo Pharmaceuticals Co., Ltd., priority 1994, dated 1997)", "key": {"Mice, ICR strain": {"system": "Mice, ICR strain", "details": "cited from earlier work"}, "[1]": {"test": "Short term clinical testing: central-facial palsy", "format": "in vivo, clinical subjects", "details": "all of the 12 cases with central-facial palsy; 300 mg per day for 2 days; none of 6 control cases"}, "[2]": {"test": "Short term clinical testing, motor disturbance: FMS (Fugl-Meyer score)", "format": "in vivo, clinical subjects", "details": "for Improvement in FMS: individual case", "method": "Clinical testing was conducted to evaluate the effects of the restorative neuropharmacological agent for motor and speech disturbance according to this invention.\nClinical subjects for motor disturbance were 2 cases after cerebral aneurysm operations (subarachnoid hemorrhage), 9 cases of brain hemorrhage and 10 cases of brain infarction with chronic apoplectic paralysis, i.e. a total of 21 cases (12 males and 9 females, age 43-83 with an average 61.9±2.5 years). For these clinical subjects, the average time elapsed from the onset had occurred was 100 days.\nFirst, the clinical subjects received physical therapy without administration of droxidopa (L-DOPS), and then they were evaluated with FMS (Fugl-Meyer score), 10-meter walking and the Barthel index. The clinical subjects then received administration of 300 mg droxidopa (L-DOPS) per day for 2 days in addition to the physical therapy, and were evaluated with FMS. 10-meter walking and with the Barthel index."}, "SD rats [3]": {"system": "SD rats", "details": "3 months, cited from earlier work"}, "SD rats [4]": {"system": "SD rats", "details": "cited from earlier work; for perinatal and lactation period findings: oral"}, "[5]": {"details": "of the 21 cases, 300 mg per day for 2 days"}}, "note": "“Also recorded” adds a separate entry of the source. Like-named read-outs stand apart in the source and are kept apart here."}
{"molecule": "N[C@@H](C(=O)O)[C@H](O)c1ccc(O)c(O)c1", "note": "[L-threo-DOPS, (-)-(2R, 3R)-2-amino-3-hydroxy-3-(3,4-dihydroxyphenyl) propionic acid]", "values": [{"measurement": "LD50", "setting": "Mice, ICR strain; hypodermic, female", "result": "> 10000", "unit": "mg/kg"}, {"measurement": "LD50", "setting": "Mice, ICR strain; hypodermic, male", "result": "> 10000", "unit": "mg/kg"}, {"measurement": "LD50", "setting": "Mice, ICR strain; intravenous, female", "result": "> 100", "unit": "mg/kg"}, {"measurement": "LD50", "setting": "Mice, ICR strain; intravenous, male", "result": "> 100", "unit": "mg/kg"}, {"measurement": "general symptoms, acute toxicity", "setting": "Mice, ICR strain; mice", "result": "reduced voluntary motions, deep breathing and bradypnea were observed"}, {"measurement": "LD50", "setting": "Mice, ICR strain; oral, female", "result": "> 10000", "unit": "mg/kg"}, {"measurement": "LD50", "setting": "Mice, ICR strain; oral, male", "result": "> 10000", "unit": "mg/kg"}, {"measurement": "cases with central-facial palsy that showed improvement", "setting": "[1]", "result": 12, "unit": "cases"}, {"measurement": "FMS increase", "setting": "[2]; 300 mg per day for 2 days plus physical therapy, higher than control cases", "result": "2.5±0.5"}, {"measurement": "Improvement in FMS", "setting": "[2]; brain hemorrhage (BH), 300 mg per day for 2 days plus physical therapy, listed as L-DOPS", "result": "Improved; also recorded: No change"}, {"measurement": "Improvement in FMS", "setting": "[2]; brain infarction (BI), 300 mg per day for 2 days plus physical therapy, listed as L-DOPS", "result": "Improved; also recorded: No change"}, {"measurement": "Improvement in FMS", "setting": "[2]; subarachnoid hemorrhage (SAH), 300 mg per day for 2 days plus physical therapy", "result": "Improved"}, {"measurement": "cases with improved balance (FMS)", "setting": "[2]; [5]", "result": 3, "unit": "cases"}, {"measurement": "cases with improvement in lower limb motor function (FMS)", "setting": "[2]; [5]", "result": 6, "unit": "cases"}, {"measurement": "cases with improvement in upper limb motor function (FMS)", "setting": "[2]; [5]", "result": 10, "unit": "cases"}, {"measurement": "cases with improved FMS", "setting": "[2]; of the 21 cases, 300 mg per day for 2 days plus physical therapy", "result": 15, "unit": "cases"}, {"measurement": "subacute toxicity findings", "setting": "SD rats [3]; oral, 60 mg/kg/day and higher", "result": "suppressed voluntary motions, necrosis of kidney uriniferous tubuli, necrosis of cardiac muscles, etc. were observed"}, {"measurement": "subacute toxicity findings", "setting": "SD rats [3]; oral, 300 mg/kg/day and higher", "result": "Suppression of weight increases and such were observed"}, {"measurement": "subacute toxicity findings", "setting": "SD rats [3]; oral, 1,500 mg/kg/day", "result": "Drooling was observed"}, {"measurement": "other influence, perinatal and lactation period", "setting": "SD rats [4]; oral 60, 200, 600 mg/kg/day", "result": "No other influence was observed"}, {"measurement": "perinatal and lactation period findings", "setting": "SD rats [4]; 60 mg/kg or higher", "result": "suppression of neonatal development after birth was observed"}, {"measurement": "perinatal and lactation period findings", "setting": "SD rats [4]; 600 mg/kg", "result": "shortening of the pregnancy period was observed"}]}
